Measured values as given in patent US12565475B2, “Small molecule compound inhibiting signal transmission path of TLR7 and TLR9 and use thereof” (AJOU UNIVERSITY INDUSTRY-ACADEMIC COOPERATION FOUNDATION, priority 2019, dated 2026).

Molecular target: T1, TLR3 (Mus musculus, UniProt Q99MB1)
T1 construct: endogenous in cells; host or cells: RAW 264.7
T1 sequence (Q99MB1 26-905): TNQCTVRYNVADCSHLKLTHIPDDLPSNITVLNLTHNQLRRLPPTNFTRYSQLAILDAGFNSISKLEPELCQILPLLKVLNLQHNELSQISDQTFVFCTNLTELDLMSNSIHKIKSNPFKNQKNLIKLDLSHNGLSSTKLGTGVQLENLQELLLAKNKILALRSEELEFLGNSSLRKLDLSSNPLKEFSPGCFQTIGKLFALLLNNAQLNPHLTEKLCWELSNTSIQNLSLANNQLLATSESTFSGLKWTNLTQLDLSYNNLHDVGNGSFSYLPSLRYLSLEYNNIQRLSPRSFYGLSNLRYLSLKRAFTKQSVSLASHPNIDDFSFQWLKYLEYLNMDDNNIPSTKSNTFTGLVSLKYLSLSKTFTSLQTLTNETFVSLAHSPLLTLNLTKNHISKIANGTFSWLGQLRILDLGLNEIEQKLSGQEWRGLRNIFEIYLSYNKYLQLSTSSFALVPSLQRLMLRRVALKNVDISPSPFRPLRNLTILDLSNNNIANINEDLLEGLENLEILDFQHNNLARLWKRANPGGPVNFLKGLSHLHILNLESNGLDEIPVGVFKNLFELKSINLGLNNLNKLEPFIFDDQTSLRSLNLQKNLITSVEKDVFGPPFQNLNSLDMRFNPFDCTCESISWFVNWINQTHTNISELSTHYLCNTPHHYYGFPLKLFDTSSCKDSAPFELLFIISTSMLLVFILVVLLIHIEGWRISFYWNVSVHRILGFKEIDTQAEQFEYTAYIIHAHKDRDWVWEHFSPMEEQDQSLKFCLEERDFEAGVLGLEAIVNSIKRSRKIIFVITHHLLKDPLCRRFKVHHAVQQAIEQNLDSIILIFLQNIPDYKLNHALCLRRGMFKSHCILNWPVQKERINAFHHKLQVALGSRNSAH
Experiment: TLR3-mediated TNF-α secretion (poly I:C), ELISA
Format: cell-based, murine
Conditions: RAW 264.7, 10 or 20 μM, poly I:C 24 hours
Method: Agonists specific to TLR1/TLR2 (Pam3CSK4), TLR2/TLR6 (FSL-1), TLR3 (Poly I:C), TLR7 (imiquimod), and TLR8 (TL8-506) were purchased from InvivoGen Ltd. (Hong-Kong, China), and a TLR4-specific agonist (LPS from E. coli O111:B4) was purchased from Sigma-Aldrich, Inc. For TLR9-specific stimulation, class C CpG-ODN (ODN2395, 5′-TCGTCGTTTTCGGCGCGCGCCG-3′) having full phosphorothioate backbone modification was synthesized (Bioneer, Inc., Daejeon, Korea). All TLR agonists were dissolved in deionized water and applied to a culture media for TLR activation. The cells were treated with test compounds or a control medium for 1 hour, and then stimulated with a TLR agonist for 4 hours, or 24 hours in the case of poly(I:C), and the cytokine secretion was monitored.
RAW 264.7 or differentiated THP-1 cell lines were seeded onto a 96-well culture plate at a density of 2×10^4 cells/well. The cells were treated with test compounds for 1 hour followed by the stimulation with TLR agonists for 4 hours. The supernatant was transferred to pre-coated assay plates, and the secretion levels of mouse and human TNF-α were measured by respective ELISA kits (Invitrogen, Carlsbad, CA, USA). […] Absorbance was measured by a microplate reader spectrophotometer (Molecular Devices, Inc., San Jose, CA, USA), and data was interpolated from a standard curve using SoftMax Pro 5.3 software (Molecular Devices, Inc.). […]

TLR3-mediated TNF-α secretion: moderately reduced
SMILES: COc1ccc(CNc2ncc(-c3ccc4c(c3)OCO4)n2C)c(OC)c1 [TIC10-7, 5-(2H-1,3-benzodioxol-5-yl)-N-[(2,4-dimethoxyphenyl)methyl]-1-methyl-1H-imidazol-2-amine]
